Reference: patent US9980943B2, “Methods of treating muscular dystrophy” (BOARD OF REGENTS OF THE NEVADA SYSTEM OF HIGHER EDUCATION, …, priority 2013, dated 2018)

Tests used:
Format in all cases: cell-based, mouse
[1] = system: α7 integrin (LacZ reporter in α7βgal+/− myoblasts); assay: Myoblast α7+/LacZ integrin FDG assay (Burkin assay in myoblasts, 96-well); details: α7+/LacZ myoblasts, 96-well
[2] = system: α7 integrin (LacZ reporter in α7+/LacZ myotubes); assay: Myotube α7 integrin FDG assay (Burkin assay in myotubes, 96-well); details: myotubes
[3] = system: β-galactosidase in CMV-LacZ C2C12 myoblasts; assay: CMV-LacZ secondary screen in C2C12 myoblasts (β-Gal stabilizing assay); details: CMV-LacZ C2C12 myoblasts
Procedure, shortened: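 Dose-response runs at 0.5–40 μM (0.5, 1, 5, 10, 20, 40 μM; N=2 per point) used a clonal C2C12 line carrying CMV-LacZ. Cells were assayed as myoblasts or as differentiated myotubes, and β-galactosidase levels were read with the FDG fluorogenic substrate.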

[4] = system: β-galactosidase in CMV-LacZ C2C12 myotubes; assay: CMV-LacZ secondary screen in C2C12 myotubes (β-Gal stabilizing assay); details: C2C12 CMV-LacZ myotubes, fold relative to DMSO
Procedure, shortened: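 β-Gal level was the read-out, measured in a clonal C2C12 line expressing LacZ from a CMV promoter. Dose-response curves used six concentrations, 0.5 μM up to 40 μM, with duplicate points.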

CC(C)(C)c1ccc(C(=O)OCC(=O)Nc2sc3c(c2C#N)CCC3)cc1 [MLS000392555-01]
Burkin Assay in Myoblasts, signal relative to DMSO ([1]; 0.5 uM): 1.2055 | Burkin Assay in Myoblasts, signal relative to DMSO ([1]; 1 uM): 1.101 | Burkin Assay in Myoblasts, signal relative to DMSO ([1]; 5 uM): 1.3 | Burkin Assay in Myoblasts, signal relative to DMSO ([1]; 10 uM): 0.9734 | Burkin Assay in Myoblasts, signal relative to DMSO ([1]; 20 uM): 1.314 | Burkin Assay in Myoblasts, signal relative to DMSO ([1]; 40 uM): 1.226 | Burkin Assay in Myotubes, α7 integrin LacZ reporter signal relative to DMSO ([2]; 0.5 uM): 0.9647 | Burkin Assay in Myotubes, α7 integrin LacZ reporter signal relative to DMSO ([2]; 1 uM): 0.9664 | Burkin Assay in Myotubes, α7 integrin LacZ reporter signal relative to DMSO ([2]; 5 uM): 1.105 | Burkin Assay in Myotubes, α7 integrin LacZ reporter signal relative to DMSO ([2]; 10 uM): 0.9741 | Burkin Assay in Myotubes, α7 integrin LacZ reporter signal relative to DMSO ([2]; 20 uM): 0.935 | Burkin Assay in Myotubes, α7 integrin LacZ reporter signal relative to DMSO ([2]; 40 uM): 0.9301 | CMV-LACZ in Myoblasts (β-galactosidase activity relative to DMSO) ([3]; 0.5 uM): 0.8954 | CMV-LACZ in Myoblasts (β-galactosidase activity relative to DMSO) ([3]; 1 uM): 0.7638 | CMV-LACZ in Myoblasts (β-galactosidase activity relative to DMSO) ([3]; 5 uM): 0.9342 | CMV-LACZ in Myoblasts (β-galactosidase activity relative to DMSO) ([3]; 10 uM): 0.9799 | CMV-LACZ in Myoblasts (β-galactosidase activity relative to DMSO) ([3]; 20 uM): 0.9559 | CMV-LACZ in Myoblasts (β-galactosidase activity relative to DMSO) ([3]; 40 uM): 1.2007 | CMV-LACZ in Myotubes, signal relative to DMSO ([4]; 0.5 uM): 1.0257 | CMV-LACZ in Myotubes, signal relative to DMSO ([4]; 1 uM): 0.9676 | CMV-LACZ in Myotubes, signal relative to DMSO ([4]; 5 uM): 1.0094 | CMV-LACZ in Myotubes, signal relative to DMSO ([4]; 10 uM): 0.8568 | CMV-LACZ in Myotubes, signal relative to DMSO ([4]; 20 uM): 1.1537 | CMV-LACZ in Myotubes, signal relative to DMSO ([4]; 40 uM): 0.9326

CCOc1ccccc1NC(=O)COC(=O)CNS(=O)(=O)c1ccc(C)cc1 [MLS000393567-01]
Burkin Assay in Myoblasts, signal relative to DMSO ([1]; 0.5 uM): 1.032 | Burkin Assay in Myoblasts, signal relative to DMSO ([1]; 1 uM): 1.051 | Burkin Assay in Myoblasts, signal relative to DMSO ([1]; 5 uM): 0.9724 | Burkin Assay in Myoblasts, signal relative to DMSO ([1]; 10 uM): 0.9325 | Burkin Assay in Myoblasts, signal relative to DMSO ([1]; 20 uM): 0.8334 | Burkin Assay in Myoblasts, signal relative to DMSO ([1]; 40 uM): 0.8705 | Burkin Assay in Myotubes, α7 integrin LacZ reporter signal relative to DMSO ([2]; 0.5 uM): 0.8882 | Burkin Assay in Myotubes, α7 integrin LacZ reporter signal relative to DMSO ([2]; 1 uM): 0.9953 | Burkin Assay in Myotubes, α7 integrin LacZ reporter signal relative to DMSO ([2]; 5 uM): 0.9065 | Burkin Assay in Myotubes, α7 integrin LacZ reporter signal relative to DMSO ([2]; 10 uM): 0.8857 | Burkin Assay in Myotubes, α7 integrin LacZ reporter signal relative to DMSO ([2]; 20 uM): 0.8607 | Burkin Assay in Myotubes, α7 integrin LacZ reporter signal relative to DMSO ([2]; 40 uM): 0.9237 | CMV-LACZ in Myoblasts (β-galactosidase activity relative to DMSO) ([3]; 0.5 uM): 1.2117 | CMV-LACZ in Myoblasts (β-galactosidase activity relative to DMSO) ([3]; 1 uM): 1.1373 | CMV-LACZ in Myoblasts (β-galactosidase activity relative to DMSO) ([3]; 5 uM): 0.6593 | CMV-LACZ in Myoblasts (β-galactosidase activity relative to DMSO) ([3]; 10 uM): 0.8148 | CMV-LACZ in Myoblasts (β-galactosidase activity relative to DMSO) ([3]; 20 uM): 1.0175 | CMV-LACZ in Myoblasts (β-galactosidase activity relative to DMSO) ([3]; 40 uM): 1.1319 | CMV-LACZ in Myotubes, signal relative to DMSO ([4]; 0.5 uM): 1.0400 | CMV-LACZ in Myotubes, signal relative to DMSO ([4]; 1 uM): 0.9524 | CMV-LACZ in Myotubes, signal relative to DMSO ([4]; 5 uM): 0.9322 | CMV-LACZ in Myotubes, signal relative to DMSO ([4]; 10 uM): 0.9858 | CMV-LACZ in Myotubes, signal relative to DMSO ([4]; 20 uM): 1.0160 | CMV-LACZ in Myotubes, signal relative to DMSO ([4]; 40 uM): 0.9100

Cc1cccc2c(N=Nc3ccc(S(=O)(=O)Nc4ccc(Cl)cc4)cc3[N+](=O)[O-])c(O)[nH]c12 [MLS000393762-01]
Burkin Assay in Myoblasts, signal relative to DMSO ([1]; 0.5 uM): 0.9738 | Burkin Assay in Myoblasts, signal relative to DMSO ([1]; 1 uM): 0.9428 | Burkin Assay in Myoblasts, signal relative to DMSO ([1]; 5 uM): 0.7799 | Burkin Assay in Myoblasts, signal relative to DMSO ([1]; 10 uM): 0.6957 | Burkin Assay in Myoblasts, signal relative to DMSO ([1]; 20 uM): 0.5961 | Burkin Assay in Myoblasts, signal relative to DMSO ([1]; 40 uM): 0.4696 | Burkin Assay in Myotubes, α7 integrin LacZ reporter signal relative to DMSO ([2]; 0.5 uM): 0.9402 | Burkin Assay in Myotubes, α7 integrin LacZ reporter signal relative to DMSO ([2]; 1 uM): 0.925 | Burkin Assay in Myotubes, α7 integrin LacZ reporter signal relative to DMSO ([2]; 5 uM): 0.9795 | Burkin Assay in Myotubes, α7 integrin LacZ reporter signal relative to DMSO ([2]; 10 uM): 1.007 | Burkin Assay in Myotubes, α7 integrin LacZ reporter signal relative to DMSO ([2]; 20 uM): 0.7705 | Burkin Assay in Myotubes, α7 integrin LacZ reporter signal relative to DMSO ([2]; 40 uM): 0.7046 | CMV-LACZ in Myoblasts (β-galactosidase activity relative to DMSO) ([3]; 0.5 uM): 0.9560 | CMV-LACZ in Myoblasts (β-galactosidase activity relative to DMSO) ([3]; 1 uM): 0.9351 | CMV-LACZ in Myoblasts (β-galactosidase activity relative to DMSO) ([3]; 5 uM): 1.0114 | CMV-LACZ in Myoblasts (β-galactosidase activity relative to DMSO) ([3]; 10 uM): 1.0198 | CMV-LACZ in Myoblasts (β-galactosidase activity relative to DMSO) ([3]; 20 uM): 0.3793 | CMV-LACZ in Myoblasts (β-galactosidase activity relative to DMSO) ([3]; 40 uM): 0.4467 | CMV-LACZ in Myotubes, signal relative to DMSO ([4]; 0.5 uM): 0.8653 | CMV-LACZ in Myotubes, signal relative to DMSO ([4]; 1 uM): 0.9326 | CMV-LACZ in Myotubes, signal relative to DMSO ([4]; 5 uM): 1.0005 | CMV-LACZ in Myotubes, signal relative to DMSO ([4]; 10 uM): 1.0049 | CMV-LACZ in Myotubes, signal relative to DMSO ([4]; 20 uM): 1.0800 | CMV-LACZ in Myotubes, signal relative to DMSO ([4]; 40 uM): 1.0578
